Assays:
[1] = tested on: writhing reaction induced by acetic acid in mice; assay: acetic acid-induced writhing reaction; assay type: in vivo; conditions: count over 10 minutes from 10 minutes after 0.7% acetic acid i.p.; s.c. 30 minutes before: aspirin 300 mg/kg, colloid 0.1 ml/10 g
From the text: Then, an analgesic effect of the aqueous colloid of the present invention in mice was studied using a writhing reaction induced by acetic acid. In the observation of the behavior of twisting in response e.g. to a pain due to acetic acid irritation in the peritoneal cavity (writhing), when the administration of an agent suppresses the writhing reaction, the agent can be said to have depressed pseudo affective response, assessing it as having an anti-nociceptive effect. 1) ddy strain male mice (7-week old; 27 to 38 g; 6 mice per group); 2) drug solution: aspirin in 0.1 M Tris-Hydrochloride buffer as a solvent (pH 7.8); […] 4) the aqueous colloid of the present invention: 100 ml of the nanocolloid of the present invention to which 0.9 g of sodium chloride was added to make an isotonicsolution. 1) dividing mice into 3 groups to subcutaneously administer, to an aspirin (300 mg/kg) treatment group, the aspirin solution, the Tris-Hydrochloride buffer to a control group, and the aqueous nanocolloid (0.1 ml/10 g) to the remaining group; […] 3) starting to count the frequency of writhing 10 minutes after the administration of the acetic acid and recording a frequency of writhing during a period of 10 minutes. (See FIG. 10)

[2] = tested on: Tyrosinase derived from mushroom; assay: tyrosinase activity inhibition; assay type: biochemical; conditions: control agents
Procedure: The above aqueous colloid (conc) of the present invention as a basic material, and ascorbic acid and hydroquinone as control agents were used. Tyrosinase used that derived from mushroom (from Sigma Co., Ltd.: 2,500 U/mg). Specifically, for testing an inhibiting effect against tyrosinase activity, 4 kinds of solutions were prepared. (1) a tyrosine solution (0.5 mg/ml); 0.5 ml loading, (2) a 1/15 M phosphate buffer (pH 6.8); 2.0 ml loading, (3) a tyrosine solution (6.0 mg/100 ml); 0.5 ml loading, and (4) a test solution: the nanocolloid particle and/or the aqueous colloid of the present invention, ascorbic acid, or hydroquinone (0.005, 0.01, 0.05, 0.1, 0.5 mg) dissolved in buffer; 2.0 ml loading. The solutions of (1) to (4) were mixed to incubate at 37° C. for one hour, followed by the measurement of absorbance (At) at 475 nm. In addition, the absorbance obtained by adding the phosphate buffer (2 ml) in place of each test solution to carry out the same operation (Ab) was used as control to determine an inhibition rate. The inhibition rate was calculated from the resultant Ab and At values using the formula: inhibition rate=(Ab−At)/Ab×100.

| tyrosinase activity [2] | SMILES | frequency of writhing [1] |
| --- | --- | --- |
| – | CC(=O)Oc1ccccc1C(=O)O [aspirin] | 10.5±1.2 |
| inhibited the tyrosinase activity | O=C1O[C@H]([C@@H](O)CO)C(O)=C1O [ascorbic acid] | – |
| inhibited the tyrosinase activity | Oc1ccc(O)cc1 [hydroquinone] | – |
